Data published in publication PMC8228075, “In Vitro and In Silico Characterization of G-Protein Coupled Receptor (GPCR) Targets of Phlorofucofuroeckol-A and Dieckol” (Marine Drugs, 2021).
Several values for one entry are separate records, joined by “and”; a condition that tells them apart may be missing. Identical values can stand only once. Marks after values point to notes of the source that are not given here.

Columns and labels:
Type in all cases: cell-based
[1] = target: T1, Alpha-2A adrenergic receptor (hα2AAR) (Homo sapiens, UniProt P08913); experiment: hα2AAR functional agonist assay (Ca2+ mobilization, rat basophil leukemia cells); settings: 100 µM; % of control response to 0.1 µM epinephrine bitartrate
T1 construct: host or cells: rat basophil leukemia cells
T1 sequence (P08913 1-465): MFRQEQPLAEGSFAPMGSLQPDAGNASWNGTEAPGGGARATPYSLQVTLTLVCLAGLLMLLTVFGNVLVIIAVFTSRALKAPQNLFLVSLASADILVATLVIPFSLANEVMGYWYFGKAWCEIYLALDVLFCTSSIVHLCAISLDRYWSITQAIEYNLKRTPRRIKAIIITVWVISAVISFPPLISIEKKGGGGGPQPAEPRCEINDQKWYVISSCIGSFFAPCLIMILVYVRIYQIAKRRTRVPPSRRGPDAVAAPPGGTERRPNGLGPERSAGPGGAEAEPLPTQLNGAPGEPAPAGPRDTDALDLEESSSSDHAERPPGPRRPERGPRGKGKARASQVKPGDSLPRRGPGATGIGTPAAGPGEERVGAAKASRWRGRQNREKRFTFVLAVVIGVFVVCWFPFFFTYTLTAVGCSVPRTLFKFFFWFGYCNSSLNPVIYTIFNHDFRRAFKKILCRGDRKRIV
Text: (§1) The in-house assay protocol and experimental conditions are reported in our previous reports. The functional effect of dieckol and PFF-A was characterized based on their modulation effect on cytosolic Ca^2+ ion mobilization using a fluorimetric detection method or by measuring their effect on cAMP modulation using homogeneous time-resolved fluorescence (HTRF) detection.
(§2) The rat basophil leukemia cells were distributed in microplates at a density of 1.1 × 10^4 cells/well after suspending in a HBSS buffer (Invitrogen) containing 20 mM HEPES. Then, the fluorescent probe (Fluo8, AAT Bioquest) mixed with probenecid in HBSS buffer (Invitrogen) complemented with 20 mM Hepes (Millipore) (pH 7.4) was added into each well incubated for 60 min at 30 °C. Thereafter, the assay plates were positioned in a microplate reader (FlipR Tetra, Molecular Device) and we added test compounds, reference agonist/antagonist or HBSS buffer (basal control). Change in fluorescence intensity which varies proportionally to the free cytosolic Ca^2+ ion concentration was measured.

[2] = target: T1, Alpha-2A adrenergic receptor (hα2AAR); experiment: hα2AAR functional antagonist assay (Ca2+ mobilization, rat basophil leukemia cells); settings: read-out: Antagonist Effect
Text: as §1, §2

[3] = target: T2, δ-opioid receptor (hδ-OPR) (Homo sapiens, UniProt P41143); experiment: hδ-OPR functional antagonist assay (Ca2+ mobilization, rat basophil leukemia cells); settings: for Antagonist Effect: 50 µM; for IC50: antagonist effect, mean ± SD, n = 3; for inhibition at 150 µM: read-out: Antagonist Effect, 150 µM
T2 construct: host or cells: rat basophil leukemia cells
T2 sequence (P41143 whole entry): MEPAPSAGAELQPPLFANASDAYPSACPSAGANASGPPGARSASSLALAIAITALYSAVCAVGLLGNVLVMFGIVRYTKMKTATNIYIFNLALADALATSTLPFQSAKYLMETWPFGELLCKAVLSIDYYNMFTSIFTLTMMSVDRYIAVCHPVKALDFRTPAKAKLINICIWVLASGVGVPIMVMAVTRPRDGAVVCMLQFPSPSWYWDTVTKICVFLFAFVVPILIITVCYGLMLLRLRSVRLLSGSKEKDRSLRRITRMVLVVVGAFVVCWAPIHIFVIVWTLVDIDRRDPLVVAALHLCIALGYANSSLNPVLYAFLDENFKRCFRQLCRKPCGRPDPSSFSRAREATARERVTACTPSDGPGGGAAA
Text: as §1
Thereafter, a mixture of fluorescent probe (Fluo8, AAT Bioquest) and probenecid in HBSS buffer (Invitrogen) complemented with 20 mM Hepes (Millipore) (pH 7.4) was added and plates were incubated for 60 min at 30 °C. Then, the assay plates were positioned in a FlipR Tetra microplate reader (Molecular Device, San Jose, CA, USA) for the addition of the test compound, reference agonist/antagonist, or HBSS buffer (basal control). Change in fluorescence intensity that varies proportionally to the free cytosolic Ca^2+ ion concentration was measured.

[4] = target: T3, Cannabinoid receptor 1 (CB1R) (Homo sapiens, UniProt P21554); experiment: hCB1R functional agonist assay (cAMP, HTRF, CHO cells); settings: for Agonist Effect: % of control response to 10 nM CP 55940
T3 construct: host or cells: CHO cells
T3 sequence (P21554 whole entry): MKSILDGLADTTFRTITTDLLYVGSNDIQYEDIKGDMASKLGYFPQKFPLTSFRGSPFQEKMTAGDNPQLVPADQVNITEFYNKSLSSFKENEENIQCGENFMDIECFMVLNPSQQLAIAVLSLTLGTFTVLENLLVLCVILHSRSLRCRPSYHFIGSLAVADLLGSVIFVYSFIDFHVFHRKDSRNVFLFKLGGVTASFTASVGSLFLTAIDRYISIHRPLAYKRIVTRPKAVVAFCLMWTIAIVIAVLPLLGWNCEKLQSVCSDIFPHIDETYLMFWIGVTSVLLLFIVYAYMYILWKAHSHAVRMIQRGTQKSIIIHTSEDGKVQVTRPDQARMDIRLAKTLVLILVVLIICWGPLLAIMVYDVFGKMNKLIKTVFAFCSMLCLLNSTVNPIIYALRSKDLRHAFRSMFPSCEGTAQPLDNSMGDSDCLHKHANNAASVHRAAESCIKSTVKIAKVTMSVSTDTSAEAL
Experimental: as §1
(§3) Functional activity of phlorotannins over hA2AR, hα2CAR, hCB1R, GLP-1R, and h5-HT1BR was determined by measuring their effects on cAMP production by the HTRF detection method using transected cells expressing human cloned receptors.
The transfected CHO cells were suspended in HBSS buffer (Invitrogen) complemented with 20 mM HEPES (pH 7.4). […] After 30 min of incubation at 37 °C, the cells were lysed and the fluorescence acceptor (D2-labeled cAMP) and fluorescence donor (anti-cAMP antibody labeled with europium cryptate) were added.

[5] = target: T4, Glucagon-like peptide-1 receptor (GLP-1) (Mus musculus, UniProt O35659); experiment: GLP-1R functional agonist assay (cAMP, HTRF, βTC6 cells); settings: 100 µM; % of control response to 100 nM GLP-1(7–37)
T4 construct: mouse GLP-1 receptor-expressed βTC6 cells; host or cells: βTC6 cells
T4 sequence (O35659 22-463): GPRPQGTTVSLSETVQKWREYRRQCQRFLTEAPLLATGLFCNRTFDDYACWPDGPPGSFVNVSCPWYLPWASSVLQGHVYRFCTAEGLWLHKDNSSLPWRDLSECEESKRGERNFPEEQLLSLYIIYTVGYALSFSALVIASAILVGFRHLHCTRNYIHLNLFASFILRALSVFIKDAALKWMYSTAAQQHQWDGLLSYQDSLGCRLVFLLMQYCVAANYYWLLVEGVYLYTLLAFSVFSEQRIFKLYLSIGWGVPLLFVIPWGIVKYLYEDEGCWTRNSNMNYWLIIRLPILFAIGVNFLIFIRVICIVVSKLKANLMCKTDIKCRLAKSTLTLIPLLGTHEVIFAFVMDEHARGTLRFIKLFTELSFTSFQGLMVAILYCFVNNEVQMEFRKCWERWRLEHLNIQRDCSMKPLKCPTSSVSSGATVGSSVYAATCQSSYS
Experimental: as §1, §3
(§4) The HBSS buffer (Invitrogen) complemented with 20 mM HEPES (pH 7.4) and 500 µM IBMX was used to suspend and distribute the βTC6 cells at a density of 1.5x10^4 cells/well. The plate was then incubated for 10 min at RT in the presence of HBSS (basal and stimulated control), the test compound, or the reference agonist and antagonist. […] Following incubation, the cells were lysed and the fluorescence acceptor (D2-labeled cAMP) and fluorescence donor (anti-cAMP antibody labeled with europium cryptate) were added.

[6] = target: T4, Glucagon-like peptide-1 receptor (GLP-1); experiment: GLP-1R functional antagonist assay (cAMP, HTRF, βTC6 cells); settings: for Antagonist Effect: % inhibition of control response to 0.3 nM GLP-1(7–37); for IC50: antagonist effect, mean ± SD, n = 3; for inhibition at 12.5 µM / inhibition at 25 µM / inhibition at 100 µM: read-out: Antagonist Effect
Experimental: as §1, §3, §4

[7] = target: T5, Vasopressin 1A receptor (hV1AR) (Homo sapiens, UniProt P37288); experiment: hV1AR functional antagonist assay (Ca2+ mobilization, CHO-V1AR cells); settings: for Antagonist Effect: % inhibition of control response to 10 nM AVP; for IC50: antagonist effect, mean ± SD, n = 3
T5 construct: host or cells: CHO-V1AR cells
T5 sequence (P37288 whole entry): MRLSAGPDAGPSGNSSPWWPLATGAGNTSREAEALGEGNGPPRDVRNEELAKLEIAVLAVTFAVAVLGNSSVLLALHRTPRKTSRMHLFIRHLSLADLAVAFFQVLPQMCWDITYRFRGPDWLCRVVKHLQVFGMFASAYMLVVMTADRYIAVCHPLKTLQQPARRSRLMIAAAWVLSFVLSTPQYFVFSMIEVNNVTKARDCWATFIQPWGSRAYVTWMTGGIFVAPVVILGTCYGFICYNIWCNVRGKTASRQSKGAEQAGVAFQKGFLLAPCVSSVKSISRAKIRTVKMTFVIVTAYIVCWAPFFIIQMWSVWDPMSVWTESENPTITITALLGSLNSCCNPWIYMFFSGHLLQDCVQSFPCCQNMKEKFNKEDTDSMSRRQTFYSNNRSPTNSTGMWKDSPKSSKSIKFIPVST
Text: as §1
Then, fluorescent probe (Fluo4, Invitrogen) mixed with probenecid in HBSS buffer (Invitrogen, Carlsbad, CA, USA) supplemented with 20 mM HEPES, pH 7.4 (Invitrogen) was added to each well, allowing to equilibrate with the cells for 60 min at 37 °C, then 15 min at 22 °C.

[8] = % inhibition of control response to 25 nM DPDPE
[9] = 50 µM, dieckol value flagged as apparent inhibition (at least 25% agonist effect)
[10] = 100 µM, values flagged as apparent inhibition (at least 25% agonist effect)

Row | Structure (SMILES) | Agonist Effect [1] [%] | inhibition at 100 µM [2] [%] | Antagonist Effect [3, 8] [%] | IC50 [3] [µM] | inhibition at 150 µM [3, 8] [%] | Agonist Effect ([4]; 100 µM) [%] | Agonist Effect [5] [%] | Antagonist Effect ([6]; 25 µM) [%] | Antagonist Effect ([6]; 50 µM) [%] | IC50 [6] [µM] | inhibition at 12.5 µM [6] [%] | inhibition at 25 µM [6] [%] | inhibition at 100 µM [6] [%] | Antagonist Effect [7, 9] | Antagonist Effect [7, 10] | IC50 [7] [µM] | inhibition at 100 µM ([7]; read-out: Antagonist Effect) [%] | inhibition at 150 µM ([7]; read-out: Antagonist Effect) [%] | other results
1 | Oc1cc(O)cc(Oc2c(O)cc(O)c3c2Oc2c(O)cc(Oc4c(O)cc(Oc5c(O)cc(O)c6c5Oc5c(O)cc(O)cc5O6)cc4O)cc2O3)c1 [Dieckol, dieckol] | 13.4 ± 19.87 | 46.1 ± 20.1 | 23.23 ± 4.04 | 80.5 ± 13.7 | 100 ± 1.53 | −23.3 ± 12.09 | −16.3 ± 1.13 | 21.23 ± 7.31 | 53.80 ± 3.12 | 47.2 ± 2.46 | 17.9 ± 6.32 | 21.2 | 101 ± 8.2 | 41.53 ± 7.39 ^c % | 57.77 ± 0.32 ^b % and 57.77 ± 0.32 ^c % | 82.7 ± 8.73 | 57.77 ± 0.32 | 68.8 ± 0.85 | inhibition at 100 µM ([3]; read-out: Antagonist Effect, 100 µM, % inhibition of control response to 25 nM DPDPE): 67 ± 0.92%; Antagonist Effect ([6]; 100 µM): 101.0 ± 8.20%
2 | Oc1cc(O)cc(Oc2c(O)cc(O)c3c2Oc2c(O)cc4oc5c(Oc6cc(O)cc(O)c6)c(O)cc(O)c5c4c2O3)c1 [PFF-A, phlorofucofuroeckol-A] | −0.5 ± 0.85 | 20.9 ± 1.77 | 89.03 ± 0.70 | < 50 | 93.7 ± 6.67 | 113.8 ± 3.68 | −15.5 ± 2.55 | 57.37 ± 1.15 | 83.87 ± 2.03 | 21.6 ± 2.16 | 25.6 ± 13.1 | 57.4 | 106 ± 1.27 | 52.80 ± 8.09% | 56.90 ± 5.37 ^c % | 42.25 ± 0.41 | 56.9 ± 5.37 | 56.1 ± 4.72 | Agonist Effect ([4]; 12.5 µM): 46.7% and 46.7 ± 6.22%; Agonist Effect ([4]; 25 µM): 80.3% and 80.3 ± 4.10%; Agonist Effect ([4]; 50 µM): 96.45% and 96.45 ± 5.02%; EC50 ([4]; agonist effect, mean ± SD, n = 3): 13.4 ± 2.03 µM; potency relative to dieckol ([6]; from IC50 values, GLP-1R antagonist effect): two-fold higher; Antagonist Effect ([7]; 100 µM, values flagged as apparent inhibition (at least 25% agonist effect), listed as Phlorofucofuroeckol-A): 56.90 ± 5.37 ^b %; inhibition at 25 µM ([7]; read-out: Antagonist Effect): 35.7 ± 3.88%
